Data reported in ChEMBL document CHEMBL4420078, “Sos1 inhibitors for cancer treatment” (2016).
Blank lines part the entries; values can stand above or below the molecule they belong to. The source made the active and inactive calls. No cut-off for these calls is given here.

Tests used:
[1] = molecular target: T1, Son of sevenless homolog 1 (Homo sapiens) (UniProt Q07889); assay: Inhibition of SOS1 in overnight serum-starved human BxPC3 cells assessed as reduction in EGFR phosphorylation at 40 to 60 uM incubated for 2 hrs by Western blotting analysis
T1 sequence (whole entry): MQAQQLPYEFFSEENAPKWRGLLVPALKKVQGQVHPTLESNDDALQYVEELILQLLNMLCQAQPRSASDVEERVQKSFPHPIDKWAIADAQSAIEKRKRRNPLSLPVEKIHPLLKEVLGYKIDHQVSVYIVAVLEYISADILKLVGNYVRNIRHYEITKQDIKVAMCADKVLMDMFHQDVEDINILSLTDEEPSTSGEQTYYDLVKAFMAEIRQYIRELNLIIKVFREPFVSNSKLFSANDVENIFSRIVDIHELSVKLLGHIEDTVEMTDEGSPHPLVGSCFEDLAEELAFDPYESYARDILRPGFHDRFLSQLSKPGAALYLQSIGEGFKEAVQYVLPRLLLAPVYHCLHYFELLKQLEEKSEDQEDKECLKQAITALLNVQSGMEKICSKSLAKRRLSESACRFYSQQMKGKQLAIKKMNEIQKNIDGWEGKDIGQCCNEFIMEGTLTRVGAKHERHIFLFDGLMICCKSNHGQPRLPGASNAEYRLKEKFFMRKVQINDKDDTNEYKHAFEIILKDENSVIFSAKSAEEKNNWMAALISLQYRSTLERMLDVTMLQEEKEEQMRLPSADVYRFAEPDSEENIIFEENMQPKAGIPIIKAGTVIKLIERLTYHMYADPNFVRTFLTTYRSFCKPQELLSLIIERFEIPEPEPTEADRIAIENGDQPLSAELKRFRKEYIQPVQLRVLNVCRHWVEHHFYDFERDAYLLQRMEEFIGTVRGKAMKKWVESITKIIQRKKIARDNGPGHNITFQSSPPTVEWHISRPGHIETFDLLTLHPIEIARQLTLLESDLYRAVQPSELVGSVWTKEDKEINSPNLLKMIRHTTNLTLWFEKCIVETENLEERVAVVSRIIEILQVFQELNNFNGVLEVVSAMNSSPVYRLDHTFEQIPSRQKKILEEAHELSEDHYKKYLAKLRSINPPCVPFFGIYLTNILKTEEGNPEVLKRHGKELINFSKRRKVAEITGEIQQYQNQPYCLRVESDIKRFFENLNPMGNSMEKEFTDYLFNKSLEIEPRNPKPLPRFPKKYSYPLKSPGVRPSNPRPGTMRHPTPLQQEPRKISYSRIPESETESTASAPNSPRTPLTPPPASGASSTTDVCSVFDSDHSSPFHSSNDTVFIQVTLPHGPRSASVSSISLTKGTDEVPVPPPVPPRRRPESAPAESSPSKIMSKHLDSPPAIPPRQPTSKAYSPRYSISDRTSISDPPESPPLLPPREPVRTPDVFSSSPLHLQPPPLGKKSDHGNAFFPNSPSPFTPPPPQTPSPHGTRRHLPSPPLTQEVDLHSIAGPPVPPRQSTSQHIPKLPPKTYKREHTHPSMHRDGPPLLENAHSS

[2] = molecular target: T2, Son of sevenless homolog 1 (Homo sapiens, UniProt Q07889); assay: Allosteric binding affinity to N-terminal 6x-His-tagged recombinant human SOS1 catalytic domain (residues 564 to 1049 residues) expressed in Escherichia coli BL21 (DE3) by label-free microscale thermophoresis analysis
T2 sequence (Q07889 whole entry): T1 sequence (whole entry)

[3] = molecular target: T1, Son of sevenless homolog 1 (Homo sapiens); assay: Inhibition of SOS1 in overnight serum-starved human MIAPaCa2 cells assessed as reduction in AKT phosphorylation at 20 to 40 uM by Western blotting analysis
[4] = molecular target: T3, Son of sevenless homolog 1 (Mus musculus) (UniProt Q62245); assay: Inhibition of SOS1 in overnight serum-starved mouse NIH/3T3 cells assessed as effect on Rac1-GTP levels at 20 to 50 uM pre-incubated for 2 hrs before EGF stimulation for 5 mins by GST-Raf1 effector domain pulldown assay
T3 sequence (whole entry): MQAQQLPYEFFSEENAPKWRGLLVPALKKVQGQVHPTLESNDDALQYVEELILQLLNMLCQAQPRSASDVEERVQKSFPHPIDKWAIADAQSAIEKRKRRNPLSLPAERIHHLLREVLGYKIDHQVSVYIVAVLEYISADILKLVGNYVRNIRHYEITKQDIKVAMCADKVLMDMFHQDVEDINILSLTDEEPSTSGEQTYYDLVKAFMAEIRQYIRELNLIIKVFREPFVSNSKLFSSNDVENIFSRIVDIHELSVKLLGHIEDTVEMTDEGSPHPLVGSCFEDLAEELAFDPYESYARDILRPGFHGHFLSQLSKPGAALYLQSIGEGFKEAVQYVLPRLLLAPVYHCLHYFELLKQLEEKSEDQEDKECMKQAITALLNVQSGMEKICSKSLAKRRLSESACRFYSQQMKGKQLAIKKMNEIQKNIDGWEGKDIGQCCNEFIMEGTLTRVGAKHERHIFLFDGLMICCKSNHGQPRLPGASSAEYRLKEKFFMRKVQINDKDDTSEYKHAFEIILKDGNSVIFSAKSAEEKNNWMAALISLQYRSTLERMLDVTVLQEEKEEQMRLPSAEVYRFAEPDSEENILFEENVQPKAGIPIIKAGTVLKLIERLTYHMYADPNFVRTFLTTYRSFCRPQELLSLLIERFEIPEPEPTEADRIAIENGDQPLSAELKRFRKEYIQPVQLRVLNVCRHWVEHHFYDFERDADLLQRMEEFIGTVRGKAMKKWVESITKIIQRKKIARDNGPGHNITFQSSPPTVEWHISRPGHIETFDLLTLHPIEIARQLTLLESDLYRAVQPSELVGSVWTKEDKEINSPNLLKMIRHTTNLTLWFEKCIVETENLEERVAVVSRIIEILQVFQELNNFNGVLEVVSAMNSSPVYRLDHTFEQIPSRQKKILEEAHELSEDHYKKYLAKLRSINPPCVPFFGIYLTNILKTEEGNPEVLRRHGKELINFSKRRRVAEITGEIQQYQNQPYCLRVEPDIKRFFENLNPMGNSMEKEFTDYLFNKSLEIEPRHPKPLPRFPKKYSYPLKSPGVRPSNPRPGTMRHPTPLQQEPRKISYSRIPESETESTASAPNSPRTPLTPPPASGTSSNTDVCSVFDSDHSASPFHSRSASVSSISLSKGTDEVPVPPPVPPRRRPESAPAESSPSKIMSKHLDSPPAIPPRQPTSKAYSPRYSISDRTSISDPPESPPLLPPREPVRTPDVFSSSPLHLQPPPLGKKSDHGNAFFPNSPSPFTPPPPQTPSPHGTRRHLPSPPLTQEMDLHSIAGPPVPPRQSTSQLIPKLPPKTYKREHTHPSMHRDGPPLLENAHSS

[5] = molecular target: Intersectin-1 (Homo sapiens) (UniProt Q15811); assay: Inhibition of N-terminal 6x-His-tagged recombinant human ITSN1 DH and PH domain (1227 to 1571 residues) expressed in Escherichia coli BL21 (DE3) assessed as reduction in 50 nM […] GDP/GTP nucleotide exchange upon 2 uM N-terminal-GST-tagged Cdc42 (1 to 182 residues) at 10 uM by BODIPY-FL-GDP dissociation assay
Sequence of Intersectin-1 (Homo sapiens) (Q15811 whole entry, the tested form may be a part): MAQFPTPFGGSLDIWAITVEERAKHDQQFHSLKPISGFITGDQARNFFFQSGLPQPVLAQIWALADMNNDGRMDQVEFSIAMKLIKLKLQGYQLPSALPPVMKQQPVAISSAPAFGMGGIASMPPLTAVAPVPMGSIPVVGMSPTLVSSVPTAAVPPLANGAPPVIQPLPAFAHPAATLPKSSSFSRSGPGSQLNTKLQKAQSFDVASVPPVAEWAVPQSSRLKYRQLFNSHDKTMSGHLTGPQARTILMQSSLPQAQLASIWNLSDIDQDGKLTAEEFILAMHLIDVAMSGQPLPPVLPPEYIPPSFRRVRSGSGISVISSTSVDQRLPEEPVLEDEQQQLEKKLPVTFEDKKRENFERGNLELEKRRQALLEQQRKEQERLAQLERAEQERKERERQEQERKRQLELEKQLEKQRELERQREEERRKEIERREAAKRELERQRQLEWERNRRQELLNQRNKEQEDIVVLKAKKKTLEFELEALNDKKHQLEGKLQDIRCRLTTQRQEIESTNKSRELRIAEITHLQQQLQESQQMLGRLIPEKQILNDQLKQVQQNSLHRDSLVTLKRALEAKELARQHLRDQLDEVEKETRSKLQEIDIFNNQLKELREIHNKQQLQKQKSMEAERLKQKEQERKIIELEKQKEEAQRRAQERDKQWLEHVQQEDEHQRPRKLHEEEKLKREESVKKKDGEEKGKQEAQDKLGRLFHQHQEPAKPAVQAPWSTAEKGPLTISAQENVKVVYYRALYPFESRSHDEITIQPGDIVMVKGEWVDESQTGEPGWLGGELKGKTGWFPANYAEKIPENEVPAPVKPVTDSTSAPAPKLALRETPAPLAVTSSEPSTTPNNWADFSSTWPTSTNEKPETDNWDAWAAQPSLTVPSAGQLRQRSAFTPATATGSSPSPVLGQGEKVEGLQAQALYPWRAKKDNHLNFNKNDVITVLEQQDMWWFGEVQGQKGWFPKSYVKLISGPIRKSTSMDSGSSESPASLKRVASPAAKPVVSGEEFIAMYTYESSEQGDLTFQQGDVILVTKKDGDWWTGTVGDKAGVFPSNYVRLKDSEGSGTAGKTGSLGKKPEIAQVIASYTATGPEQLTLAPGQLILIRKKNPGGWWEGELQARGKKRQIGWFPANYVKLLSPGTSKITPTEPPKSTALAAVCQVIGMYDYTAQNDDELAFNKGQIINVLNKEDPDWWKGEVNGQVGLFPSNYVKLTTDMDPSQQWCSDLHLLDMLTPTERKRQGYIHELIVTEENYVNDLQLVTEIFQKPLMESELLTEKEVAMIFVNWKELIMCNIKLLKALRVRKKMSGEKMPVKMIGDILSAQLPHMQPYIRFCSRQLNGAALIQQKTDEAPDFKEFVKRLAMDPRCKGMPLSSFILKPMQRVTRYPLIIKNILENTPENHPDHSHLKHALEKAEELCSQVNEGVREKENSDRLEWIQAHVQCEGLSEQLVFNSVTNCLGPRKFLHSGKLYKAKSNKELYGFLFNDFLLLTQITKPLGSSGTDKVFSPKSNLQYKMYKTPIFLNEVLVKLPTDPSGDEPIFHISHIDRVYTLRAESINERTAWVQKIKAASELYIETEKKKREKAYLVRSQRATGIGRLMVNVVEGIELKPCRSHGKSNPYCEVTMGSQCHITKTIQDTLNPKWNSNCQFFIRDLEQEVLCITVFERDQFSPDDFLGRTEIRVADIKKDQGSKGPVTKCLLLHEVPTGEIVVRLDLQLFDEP

inhibition [1]: Active
Kd [2]: 14.2 µM
inhibition [3]: inactive
Compound: O=[N+]([O-])c1ccccc1/C=C/C=C1c2ccccc2-c2ccccc21

inhibition [4]: inactive
Compound: O=C1Oc2ccccc2C(=O)/C1=C/N1C(=O)/C(=C/c2ccc([N+](=O)[O-])cc2)SC1=S

inhibition [5]: inactive
Compound: O=C(O)c1ccccc1-c1c2ccc3cc(O)ccc3c2oc2c1ccc1cc(=O)ccc12
